Laboratory results reported in ChEMBL document CHEMBL2016437, “Synthesis and biological evaluation of novel small non-peptidic HIV-1 PIs: the benzothiophene ring as an effective moiety” (Bioorg Med Chem Lett, 2012).
Active and inactive are the calls of the source. The rule behind the calls is not given here.

Columns and labels:
Protease = Protease (Human immunodeficiency virus 1, UniProt Q9YQ12); assay: Inhibition of wild type HIV-1 protease assessed as hydrolysis of fluorogenic substrate Abz-Thr-Ile-Nle-Phe(NO2)-Gln-Arg after 10 mins by fluorescence assay
Chain of Protease (Q9YQ12 whole entry): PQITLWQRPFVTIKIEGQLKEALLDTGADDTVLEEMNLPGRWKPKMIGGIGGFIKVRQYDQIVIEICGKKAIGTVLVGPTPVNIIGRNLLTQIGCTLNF

[1] = system: Human immunodeficiency virus type 1 protease (Human immunodeficiency virus 1), Q72874 [V82A]; assay: Inhibition of HIV-1 protease V82A mutant assessed as hydrolysis of fluorogenic substrate Abz-Thr-Ile-Nle-Phe(NO2)-Gln-Arg after 10 mins by fluorescence assay
[2] = system: Human immunodeficiency virus type 1 protease (Human immunodeficiency virus 1), Q72874 [V32I]; assay: Inhibition of HIV-1 protease V32I mutant assessed as hydrolysis of fluorogenic substrate Abz-Thr-Ile-Nle-Phe(NO2)-Gln-Arg after 10 mins by fluorescence assay
[3] = Cytotoxicity against human U937 cells after 1 to 4 hrs by MTS assay; type: cell-based, U-937

| SMILES | IC50 (Protease) | inhibition [1] | inhibition [2] | CC50 [3] |
| --- | --- | --- | --- | --- |
| COc1ccc(S(=O)(=O)N(CC(C)C)C[C@@H](O)COc2ccc3occc3c2)cc1OC | 130 µM |  |  |  |
| COc1ccc(S(=O)(=O)N(CC(C)C)C[C@@H](O)COc2ccc3c(ccn3C)c2)cc1OC | > 1000 µM |  |  |  |
| COc1ccc(S(=O)(=O)N(CC(C)C)C[C@@H](O)COc2ccc3c(ccn3Cc3ccccc3)c2)cc1OC | > 1000 µM |  |  |  |
| Cc1c(O)cccc1C(=O)N[C@@H](CSc1ccccc1)[C@H](O)CN1C[C@H]2CCCC[C@H]2C[C@H]1C(=O)NC(C)(C)C [NELFINAVIR] | 0.009 µM |  |  |  |
| COc1ccc(S(=O)(=O)N(CC(C)C)C[C@@H](O)COc2ccc3sccc3c2)cc1OC | 0.06 µM | inactive | inactive | > 90 µM |
| COc1ccc(S(=O)(=O)N(CC(C)C)C[C@@H](O)COc2ccc3[nH]ccc3c2)cc1OC | 1 µM |  |  |  |
